Here are results for five compounds from publication PMC8237569 (Proceedings of the National Academy of Sciences of the …, 2021).

Usually MIC50 stands for an inhibitory concentration at the 50% level, which refers to growth in some studies and to a panel of isolates in others. By Km is commonly meant the concentration of substrate that gives half-maximal velocity.

≈ marks a conversion by molar mass, not a printed value.

Data set [1] relates to TA-C–resistant M. tuberculosis strains (fbiC, fgd1 mutants). The class given is cell-based.
The subject of data set [2] is NC1=NC2(CCCCC2)N(c2ccc(OCc3cn(CCCCOc4ccc5ccc(=O)oc5c4)nn3)cc2)C(N)=N1. Nature of the data set: purified protein, by the assay type. The conditions noted are these: pH 7.5.

For the compound `NNC(=O)c1ccncc1` [INH, isoniazid], in data set [1], the “MIC50” value is 0.4 µM (≈ 0.0549 µg/mL).

Consider `Nc1ccc(C(=O)O)c(O)c1` [PAS, para-aminosalicylic acid], for which, in data set [1], the “MIC50” value turned out to be 0.2 µM (≈ 0.0306 µg/mL). Against the preceding compound, the MIC50 is about 2-fold lower.

With `O=[N+]([O-])c1cn2c(n1)OC[C@@H](OCc1ccc(OC(F)(F)F)cc1)C2` [PTM, pretomanid], the “MIC50” value in data set [1] is on record as greater than 100 µM.

Regarding `CO[C@H]1/C=C/O[C@@]2(C)Oc3c(C)c(O)c4c(O)c(c(/C=N/N5CCN(C)CC5)c(O)c4c3C2=O)NC(=O)/C(C)=C\C=C\[C@H](C)[C@H](O)[C@@H](C)[C@@H](O)[C@@H](C)[C@H](OC(C)=O)[C@@H]1C` [RIF, rifampicin], in data set [1], the “MIC50, RIF” value turned out to be 0.0016 µM (≈ 0.00132 µg/mL).

Regarding “Rv1558 (Mycobacterium tuberculosis H37Rv)”, in data set [2], the Km was 10.01 ± 1.6 µM.
